Assays:
[1] = test system: phospho-S473 Akt and PTEN around tachyzoites; assay: Immunofluorescence of brain sections from infected mice treated for four days; type: in vivo, C57BL/6 mice; settings: 10 mg kg^-1 twice daily for 4 days
Text: Scale bar, 50 m. […] Scale bar, 50 m. […] (G). […] Results are representative of 2 independent experiments. […] Scale bar, 10 m.
C57BL/6 mice (Jackson Laboratories, Bar Harbor, ME) or Becn 1^+/− (C57BL/6 background; gift from Beth Levine, University of Texas Southwestern, Dallas, TX) were bred at the Animal Resource Center at Case Western Reserve University. Female mice between the ages of 6 to 8 weeks old were infected with 10 cysts of the ME49 T. gondii for four weeks. In certain experiments, mice were euthanized at 4 weeks to evaluate severity of ocular and cerebral toxoplasmosis.

[2] = test system: LC3; assay: Immunofluorescence of LC3 accumulation around parasites; type: cell-based; settings: CHO cells and brain endothelial cells expressing DN EGFR, 1 μM, 5 hours
Experimental: (§1) FIGS. 3(A-L) illustrate images and graphs showing T. gondii killing induced by Src inhibition is mediated by autophagy. (A-C) CHO cells and primary brain endothelial cells expressing WT or DN EGFR were infected with RFP-T. gondii and treated with Saracatinib 1 μM for 5 hours before staining with an anti-LC3 antibody. Accumulation of LC3 around the parasites was assessed by confocal microscopy. Scale bar, 10 μm. (D-F) CHO cells and primary brain endothelial cells expressing WT or DN EGFR were infected with RFP-T. gondii and treated with Saracatinib 1 μM for 7 hours before staining with anti-LAMP1 antibody. Accumulation of LAMP1 around parasites was assessed as above. G-I) CHO cells and primary brain endothelial cells expressing WT or DN EGFR were transfected with control siRNA or ULK1 siRNA. Relative density of ULK1 was normalized to total Actin followed by normalization relative to Ctr siRNA. […] Cells were treated with or without Saracatinib and infected with RH T. gondii. Monolayers were examined at 24 h. […]
(§2) Mammalian cells were infected with RFP-T. gondii (RH) and fixed with 4% paraformaldehyde. […] LC3 and LAMP1 were evaluated for accumulation at 5- and 7 hours post-infection, respectively. […] Parasites were evaluated blindly in multiple random fields of view and 100 parasites were examined per group. […]

[3] = test system: retinal pigment epithelial cells (RPE); assay: MTT assay of potential cell toxicity, RPE cells; type: cell-based, human; settings: 1 μM, 24 hrs
Experimental: Data are shown as mean±SEM. […] Three independent experiments were performed.

[4] = test system: LAMP1; assay: Immunofluorescence of LAMP1 accumulation around parasites; type: cell-based; settings: CHO cells and brain endothelial cells, 1 μM, 7 hours
Experimental: as §1, §2

[5] = test system: Lek and Fyn in T cells; settings: cited from earlier work
[6] = test system: PI3K; assay: Immunoblot of phospho-Y199 PI3K in T. gondii-infected CHO cells; type: cell-based, Chinese Hamster; settings: lysates at 2 h
Experimental: (§3) Membranes were probed with antibodies against Src, phospho-Y416 Src, Akt, phospho-S473 Akt, PTEN, phospho-[…] PTEN, PI3K, phospho-Y458/Y199 PI3K, ULK1, EGFR, HA tag (all from Cell Signaling, Danvers, MA), phospho-Y240 PTEN (Sigma) and Actin (Santa Cruz Biotechnologies) followed by incubation with secondary antibodies (Cell Signaling and Santa Cruz Biotechnologies). Three independent experiments were performed.

[7] = Brain penetration and tolerability of Saracatinib; type: in vivo; settings: mice, 10 or 15 mg kg^-1 twice per day
[8] = in vivo; cited from earlier work
[9] = test system: PTEN; assay: Immunoblot of PTEN phosphorylation in T. gondii-infected CHO cells; type: cell-based, Chinese Hamster; settings: lysates at 2 h
Experimental: as §3

[10] = test system: PTEN; assay: Confocal microscopy of PTEN and GRA7 around parasites in CHO cells; type: cell-based, Chinese Hamster; settings: RFP-T. gondii
Experimental: (§4) Mammalian cells were infected with RFP-T. gondii (RH) and fixed with 4% paraformaldehyde. Cells were stained with antibodies against LC3 (MBL International, Woburn, MA), LAMP1 (DSHB, Iowa City, IA), or GRA7 (gift from John Boothroyd, Stanford University, Stanford, CA) followed by a fluorescently conjugated secondary antibodies (Jackson ImmunoResearch Laboratories, West Grove, PA). LC3 and LAMP1 were evaluated for accumulation at 5- and 7 hours post-infection, respectively. Cells were stained with antibodies against PTEN (Santa Cruz Biotechnology, Dallas, TX) or anti-phospho S473 Akt (Novus, Centennial, CO). Frozen brain sections were stained with antibodies against PTEN (Novus, Centennial, CO), phospho S473 Akt, SAG-1 (Invitrogen, Waltham, MA) or T. gondii (Biogenex, Fremont, CA). Parasites were evaluated blindly in multiple random fields of view and 100 parasites were examined per group. In-out assays were performed as described using RFP-T gondii, anti-SAG-1 antibody (Invitrogen, Waltham, MA) and an Alexa Fluor 488-conjugated secondary antibody. Olympus FV1200 confocal microscope (Evident/Olympus, Waltham, MA) equipped with UPlanSApa 60× and 100× 1.45NA objectives was used to evaluate the slides.

[11] = test system: ME49 T. gondii; assay: Ocular and cerebral toxoplasmosis in Dexamethasone-treated mice; type: in vivo, C57BL/6 mice; settings: 10 mg kg-1 twice per day, 2 weeks, vs vehicle
[12] = test system: ME49 T. gondii; assay: Pre-established ocular and cerebral toxoplasmosis in B6 mice, 4 weeks of treatment; type: in vivo, C57BL/6 mice; settings: four weeks
Text: Brains and eyes were fixed in 10% formalin before paraffin embedding. Hematoxylin & eosin (H&E) and periodic acid Schiff hematoxylin (P.A.S.H) were used to stain sections from eyes and brains respectively. Brain and ocular histopathology were scored as described previously.

[13] = test system: ME49 T. gondii; assay: Ocular and cerebral toxoplasmosis in Becn1+/+ and Becn1+/- mice; type: in vivo; settings: 10 mg kg-1, 2 weeks
[14] = test system: phospho-S473 Akt; assay: Confocal microscopy of phospho-S473 Akt accumulation around parasites in CHO cells; type: cell-based, Chinese Hamster; settings: RFP-T. gondii
Experimental: as §4

[15] = test system: CHO cells; assay: MTT assay of potential cell toxicity, CHO cells; type: cell-based, Chinese Hamster; settings: 1 μM, 24 hrs
Experimental: FIG. 9 illustrates graphs showing the assessment of potential cell toxicity of Saracatinib. CHO cells and retinal pigment epithelial cells (RPE) were treated with various concentrations of Saracatinib (1 nM-1000 μM) followed by MTT assay 24 hrs. after incubation with Saracatinib. The data are pooled from duplicate or triplicate independent samples obtained in 3 different experiments. […] Data are shown as mean±SEM. Significance was determined by comparing all groups to the control using one-way ANOVA with Holm-Sidak multiple comparison test (*p<0.05). (PDF)

[16] = 10 or 15 mg kg^-1 oral gavage twice per day

## CN1CCN(CCOc2cc(OC3CCOCC3)c3c(Nc4c(Cl)ccc5c4OCO5)ncnc3c2)CC1 [Saracatinib, N-(5-chloro-1,3-benzodioxol-4-yl)-7-(2-(4-methylpiperazin-1-yl)ethoxy)-5-(tetrahydro-2H-pyran-4-yloxy)quinazolin-4-amine]
[1]
  phospho-S473 Akt accumulation around tachyzoites: markedly reduced
  recruitment of PTEN around tachyzoites: induced recruitment
[2]
  accumulation of LC3 around the parasites: induced accumulation
[3]
  cell toxicity (MTT): non-toxic
[4]
  accumulation of LAMP1 around intracellular parasites: accumulation of the lysosomal marker, LAMP1, was observed
[5]
  activity of Lek and Fyn in T cells: did not inhibit
[5]; low doses, previously primed T cells, in vitro and in vivo
  T cell expansion and IFN-γ production following antigenic stimulation: increased T cell expansion and IFN-γ production
[6]
  Y199 phosphorylation of PI3K: inhibited
[7]
  predicted brain concentrations: ~0.2 µM
[8]
  blood-brain barrier penetration: penetrates the blood-brain barrier
  tolerability: well-tolerated
[9]
  PTEN phosphorylation at Tyr240, Ser380 and Thr382/383: reduced
[10]
  association of PTEN to the PVM: co-expression of PTEN and GRA7
[11]
  histopathology in the eye and brain: significantly reduced
  parasite load in the eye and brain: significantly reduced
[12]; 15 mg kg^-1 twice per day
  mice with no significant ocular inflammation: 75%
  perivascular and diffuse inflammation in the brains: No significant perivascular and diffuse inflammation were detected
[12]; [16]
  histopathology in eye and brain: marked reduction
  parasite load in the eye and brain: profound reduction
[13]; Becn 1+/+ mice
  ocular and cerebral histopathology: improvement
  parasite load: improvement
[13]; autophagy-deficient Becn 1+/- mice
  response of histopathology and parasite loads: did not respond
[14]
  accumulation of phospho-S473 Akt around intracellular parasites: inhibited
[15]
  cell toxicity (MTT): non-toxic
